Assay results as given in US4902791A, “Nitrosourea derivatives, process for their preparation and medicaments containing them” (Sanofi S.A., priority 1983, dated 1990).

Legend:
[1] = toxicological study, lethal doses (Table IA); settings: mouse, in vivo
Text: The results relating to toxicology are brought together in Table IA below:

[2] = system: L1210 U.S.A. strain; assay: antitumor activity on leukemia L1210 U.S.A., compounds of formula IA, I.P.; type: in vivo, mouse
Experimental: On the day of the graft (by convention day 0=DO) an inoculum of 1×10^5 tumor cells in a volume of 0.2 ml is administered to each mouse by the intraperitoneal route (I.P.).
This inoculum is prepared by diluting ascites fluid taken from the peritoneum of a donor female mouse in NCTC 109 medium (Eurobio Laboratories Paris, France), counting of the cells in a MALASSEZ cell under a microscope and adjustment of the concentration to 5×10^5cells per ml.
After the tumor graft has been made, the mice are distributed at random in cages of 5 animals. Subsequently, these cages containing 5 mice are themselves distributed at random into a control group (control) and groups treated with the products of the invention.
(§1) The doses of the products of the invention used in the different experiments are expressed in milligrams per kilogram of body weight.
(§2) The products to be injected were dissolved in isotonic sodium chloride solution.
Two protocols for treatment were used in the different experiments:
(§3) or 3 I.P. injections on D1, D5, D9.
(§4) In each experiment the animals of the control group received 1 or more injections, depending on the experimental protocol used, by the same route (I.P. or I.V.) of the same volume (0.2 ml/20 g) of the vehicle not containing the active principle (isotonic sodium chloride solution).
(§5) the number and percentage of the total of the mice surviving to D60,
(§6) the T/C×100 for treated groups.
(§7) T representing the mean survival time of the mice in the treated group
(§8) C representing the mean survival time of the mice in the control group (control).

[3] = system: melanoma B16; assay: antitumor activity on melanoma B16, compounds of formula IA, I.P.; type: in vivo, mouse; settings: B6 D2 F1, I.P. D1, D5, D9, 3×10 mg/kg
Experimental: The experiments were always carried out on SPF female mice B6 D2 F1/JIco (first generation hybrids between the lines C5BL/6 and DBA/2).
On the day of the graft (Day 0) an inoculum of 2×10^6 tumor cells in a volume of 0.5 ml is administered to each mouse by the intraperitoneal route (I.P.). This inoculum is prepared from a sub-cutaneous tumor excised from a donor female mouse. After excision the tumor is fragmented by means of a pair of scissors in the NCTC 109 medium. After filtration through sterile gauze in order to remove large cellular fragments, the homogeneous cell suspension obtained is counted by means of a MALASSEZ cell and diluted to the desired concentration (4×10^6 tumor cells per ml) by dilution with the NCTC 109 medium.
This was performed in the manner described previously for the leukemia L1210.
as §1, §2, §3, §4, §5, §6, §7, §8

[4] = B6 D2 F1, I.P. D1, D5, D9, 3×1.25 mg/kg
[5] = B6 D2 F1, I.P. D1, D5, D9, 3×5 mg/kg

SMILES	LD0 [1]	Number of survivors at D60 [2, 4]	T/C [2, 4]	Number of survivors at D60 [2, 5]	T/C [2, 5]	Number of survivors at D60 [3]	T/C [3]	LD90 [1]
CO[C@H]1O[C@H](CO)[C@H](Cl)[C@H](NC(=O)N(CCCl)N=O)[C@H]1O [CI. 1676, methyl 4-chloro 3-[3-(2-chloro-ethyl) 3-nitrosoureido] 3,4-dideoxy-α-D-galacto-hexopyranoside]	≥ 20 mg/kg	0/10	136	0/10	188	3/10	202	–
CO[C@@H]1O[C@H](COC(=O)c2ccccc2)C[C@H](NC(=O)N(CCCl)N=O)[C@H]1O [CI. 1674, methyl 3-[3-(2-chloroethyl)-3 nitrosoureido] 6-benzoyl 3,4-dideoxy-β-D-xylo-hexopyranoside]	≥ 40 mg/kg	0/10	111	0/10	130	–	–	–
CO[C@H]1O[C@H](CO)C[C@H](NC(=O)N(CCCl)N=O)[C@H]1O [CI. 1677, methyl 3-[3-(2-chloroethyl) 3-nitroso-ureido] 3,4-dideoxy-α-D-xylo-hexopyranoside]	–	0/10	157	6/10	> 600	7/10	257	≤ 20 mg/kg
